From the supplement of paper PMC11579375

Key:
Assay in all cases: area under the viability dose-response curve (AUC) (AUC (arbitrary units, max 500 = no viability loss)); higher = less sensitive (higher viability)
Details in all cases: exposure time: 120 h; concentration range: 0.1 nM - 10 µM, 6 doses
3E = tested on: 3E (embryonal-type hepatoblastoma organoid)
Description: (§1)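 Patient-derived hepatoblastoma tumor organoids (about 50 organoids per well, 384-well plates, medium with 5% BME) were treated with the PMC pediatric cancer drug library. Each drug was tested in duplicate at 6 concentrations (0.1 nM to 10 µM, 10-fold steps).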

135F2 = tested on: 135F2 (fetal-II hepatoblastoma organoid with high liver markers)
Description: as §1

8F1 = tested on: 8F1 (fetal-I hepatoblastoma organoid with intermediate liver markers)
Description: as §1

13E = tested on: 13E (embryonal-type hepatoblastoma organoid)
Description: as §1

10F2 = tested on: 10F2 (fetal-II hepatoblastoma organoid with high liver markers)
Description: as §1

13F2 = tested on: 13F2 (fetal-II hepatoblastoma organoid with high liver markers)
Description: as §1

27F1 = tested on: 27F1 (fetal-I hepatoblastoma organoid with intermediate liver markers)
Description: as §1

17F1 = tested on: 17F1 (fetal-I hepatoblastoma organoid with intermediate liver markers)
Description: as §1

22E = tested on: 22E (embryonal-type hepatoblastoma organoid)
Description: as §1

96F1 = tested on: 96F1 (fetal-I hepatoblastoma organoid with intermediate liver markers)
Description: as §1

17E = tested on: 17E (embryonal-type hepatoblastoma organoid)
Description: as §1

Row | Compound | area under the viability dose-response curve (3E) | area under the viability dose-response curve (135F2) | area under the viability dose-response curve (8F1) | area under the viability dose-response curve (13E) | area under the viability dose-response curve (10F2) | area under the viability dose-response curve (13F2) | area under the viability dose-response curve (27F1) | area under the viability dose-response curve (17F1) | area under the viability dose-response curve (22E) | area under the viability dose-response curve (96F1) | area under the viability dose-response curve (17E)
1 | CN1CCN(c2ccc3nc(-c4c(N)c5c(F)cccc5[nH]c4=O)[nH]c3c2)CC1 [Dovitinib] | 396 | 455 | 499 | 417 | 418 | 400 | 477 | 468 | 412 | 433 | 390
2 | CC[C@@H]1C(=O)N(C)c2cnc(Nc3ccc(C(=O)N[C@H]4CC[C@H](N5CCN(CC6CC6)CC5)CC4)cc3OC)nc2N1C(C)C [Volasertib] | 278 | 257 | 351 | 263 | 227 | 278 | 255 | 331 | 326 | 281 | 249
3 | Cc1cn(-c2cc(NC(=O)c3ccc(C)c(Nc4nccc(-c5cccnc5)n4)c3)cc(C(F)(F)F)c2)cn1 [Nilotinib] | 489 | 476 | 486 | 493 | > 500 | 471 | > 500 | 496 | 478 | 495 | 456
4 | CC1(COc2ccc3c(c2)ncn3-c2ccc3cccc(N4CCC(N)CC4)c3n2)COC1 [Crenolanib] | 466 | 448 | > 500 | > 500 | 480 | 446 | > 500 | 479 | > 500 | 467 | 487
5 | Nc1ccn([C@@H]2O[C@H](CO)[C@@H](O)[C@@H]2O)c(=O)n1 [Cytarabine] | 370 | 403 | 479 | 425 | 481 | 377 | 427 | 393 | 433 | 378 | 425
6 | CO[C@@H]1[C@H](N(C)C(=O)c2ccccc2)C[C@H]2O[C@]1(C)n1c3ccccc3c3c4c(c5c6ccccc6n2c5c31)C(=O)NC4 [Midostaurin] | 338 | 365 | 454 | 427 | 372 | 335 | > 500 | 442 | 417 | 431 | 364
7 | COc1cccc2c1C(=O)c1c(O)c3c(c(O)c1C2=O)C[C@@](O)(C(=O)CO)C[C@@H]3O[C@H]1C[C@H](N)[C@H](O)[C@H](C)O1 [Doxorubicin] | 263 | 308 | 384 | 305 | 281 | 258 | 333 | 311 | 336 | 311 | 278
8 | C[C@@H](NC(=O)c1ncnc(N)c1Cl)c1ncc(C(=O)Nc2cc(C(F)(F)F)c(Cl)cn2)s1 [TAK-580] | > 500 | 449 | > 500 | > 500 | 433 | 485 | > 500 | > 500 | > 500 | > 500 | > 500
9 | C=CCNC1=C2C[C@@H](C)C[C@H](OC)[C@H](O)[C@@H](C)/C=C(\C)[C@H](OC(N)=O)[C@@H](OC)/C=C\C=C(/C)C(=O)NC(=CC1=O)C2=O [Tanespimycin] | 382 | 267 | 356 | 384 | 220 | 245 | 311 | 373 | 346 | 327 | 337
10 | Cc1ccc(NC(=O)c2ccc(CN3CCN(C)CC3)cc2)cc1Nc1nccc(-c2cccnc2)n1 [Imatinib] | 487 | 478 | 483 | 499 | 488 | 498 | 481 | 478 | 500 | 498 | 496
11 | CN1CCN(c2ccc(C(=O)Nc3n[nH]c4ccc(Cc5cc(F)cc(F)c5)cc34)c(NC3CCOCC3)c2)CC1 [Entrectinib] | 424 | 438 | 460 | 418 | 399 | 418 | 484 | 448 | 429 | 454 | 404
12 | C[C@H]1Oc2cc(cnc2N)-c2c(nn(C)c2C#N)CN(C)C(=O)c2ccc(F)cc21 [Lorlatinib] | 459 | 498 | 476 | 450 | 435 | 448 | 471 | 481 | 471 | 463 | 416
13 | CNC(=O)CN1CCC(Oc2cc3c(Nc4cccc(Cl)c4F)ncnc3cc2OC)CC1 [Sapitinib] | 431 | 458 | 439 | > 500 | 235 | 312 | 338 | 464 | 492 | 404 | 491
14 | C[C@@H](Oc1cc(-n2cnc3ccc(CN4CCN(C)CC4)cc32)sc1C(N)=O)c1ccccc1C(F)(F)F | 246 | 254 | 358 | 262 | 250 | 268 | 262 | 276 | 256 | 361 | 277
15 | Nc1ccn([C@@H]2O[C@H](CO)[C@@H](O)C2(F)F)c(=O)n1 [Gemcitabine] | 241 | 237 | 433 | 339 | 212 | 209 | 310 | 273 | 331 | 273 | 257
16 | COc1cc2nccc(Oc3ccc(NC(=O)NC4CC4)c(Cl)c3)c2cc1C(N)=O [Lenvatinib] | 475 | 469 | 461 | 468 | 419 | 445 | 445 | > 500 | 472 | 474 | 434
17 | Nc1cc(F)ccc1NC(=O)c1ccc(CNC(=O)/C=C/c2cccnc2)cc1 [Epidaza] | 466 | 444 | > 500 | 448 | 395 | 426 | 482 | 467 | 461 | 492 | 437
18 | O=C(Nc1cnn2ccc(N3CCC[C@@H]3c3cc(F)ccc3F)nc12)N1CC[C@H](O)C1 [Larotrectinib] | 450 | 495 | 473 | 487 | > 500 | > 500 | > 500 | 467 | > 500 | 481 | 453
